Data reported in patent US8802597B2, “Herbicidal pyrimidines” (E I du Pont de Nemours and Company, priority 2003, dated 2014).

Tests used:
Assay in all cases: Test C pre/postemergence
Type in all cases: in vivo
[1] = tested on: Surinam grass (Brachiaria decumbens); details: for Surinam Grass plant response rating: scale 0 to 100 (0 no effect, 100 complete control)
Procedure, shortened: (§1)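 Greenhouse pot test: seeds treated preemergence, or plants at 2–18 cm (1- to 4-leaf stage) treated postemergence, with compound in non-phytotoxic solvent plus surfactant. Visual rating versus untreated controls after 12–14 days, scale 0 (no effect) to 100 (complete control); dash means not tested.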

[2] = tested on: bermudagrass (Cynodon dactylon)
Procedure, shortened: as §1

[3] = tested on: common ragweed (Ambrosia elatior); details: for Ragweed plant response rating: scale 0 to 100 (0 no effect, 100 complete control)
Procedure, shortened: as §1

[4] = tested on: eastern black nightshade (Solanum ptycanthum); details: Preemergence
Procedure, shortened: as §1

[5] = tested on: giant foxtail (Setaria faberii); details: for Foxtail, Giant plant response rating: scale 0 to 100 (0 no effect, 100 complete control)
Procedure, shortened: as §1

[6] = tested on: goosegrass (Eleusine indica); details: for Goosegrass plant response rating: scale 0 to 100 (0 no effect, 100 complete control)
Procedure, shortened: as §1

[7] = tested on: lambsquarters (Chenopodium album); details: for Lambsquarters plant response rating: scale 0 to 100 (0 no effect, 100 complete control)
Procedure, shortened: as §1

[8] = tested on: morningglory (Ipomoea coccinea); details: for Morningglory plant response rating: scale 0 to 100 (0 no effect, 100 complete control)
Procedure, shortened: as §1

soybean (Glycine max) = details: for Soybean plant response rating: scale 0 to 100 (0 no effect, 100 complete control)
Procedure, shortened: as §1

[9] = tested on: velvetleaf (Abutilon theophrasti); details: for Velvetleaf plant response rating: scale 0 to 100 (0 no effect, 100 complete control)
Procedure, shortened: as §1

[10] = tested on: woolly cupgrass (Eriochloa villosa); details: for Cupgrass, Woolly plant response rating: scale 0 to 100 (0 no effect, 100 complete control)
Procedure, shortened: as §1

[11] = tested on: yellow nutsedge (Cyperus esculentus); details: for Nutsedge, Yellow plant response rating: scale 0 to 100 (0 no effect, 100 complete control)
Procedure, shortened: as §1

[12] = Postemergence, 250 g ai/ha, scale 0 to 100
[13] = Postemergence, 500 g ai/ha, scale 0 to 100
[14] = Preemergence, 62 g ai/ha, scale 0 to 100, 0 no effect, 100 complete control
[15] = Preemergence, 125 g ai/ha, scale 0 to 100
[16] = Preemergence, 250 g ai/ha, scale 0 to 100
[17] = Preemergence, 500 g ai/ha, scale 0 to 100

## CCCOC(=O)c1nc(C2CC2)nc(N)c1Br [Compound 15]
[1]; Postemergence, 62 g ai/ha
  Surinam Grass plant response rating: 0
[1]; Postemergence, 125 g ai/ha
  Surinam Grass plant response rating: 20
[1]; [12]
  Plant response rating, Surinam Grass: 55
[1]; [13]
  Plant response rating, Surinam Grass: 65
[1]; [14]
  Plant response rating, Surinam Grass: 15
[1]; [15]
  Plant response rating, Surinam Grass: 65
[1]; [16]
  Plant response rating, Surinam Grass: 75
[1]; [17]
  Plant response rating, Surinam Grass: 95
[2]; Postemergence, 62 g ai/ha, scale 0 to 100 (0 no effect, 100 complete control)
  Bermudagrass plant response rating: 0
[2]; [12]
  Plant response rating, Bermudagrass: 65
[2]; [13]
  Plant response rating, Bermudagrass: 75
[2]; Postemergence, 125 g ai/ha, scale 0 to 100
  Plant response rating, Bermudagrass: 45
[2]; [14]
  Plant response rating, Bermudagrass: 0
[2]; [15]
  Plant response rating, Bermudagrass: 0
[2]; [16]
  Plant response rating, Bermudagrass: 0
[2]; [17]
  Plant response rating, Bermudagrass: 70
[3]; Postemergence, 62 g ai/ha
  Ragweed plant response rating: 75
[3]; Postemergence, 125 g ai/ha
  Ragweed plant response rating: 85
[3]; [12]
  Plant response rating, Ragweed: 90
[3]; [13]
  Plant response rating, Ragweed: 95
[3]; [14]
  Plant response rating, Ragweed: 90
[3]; [15]
  Plant response rating, Ragweed: 95
[3]; [16]
  Plant response rating, Ragweed: 100
[3]; [17]
  Plant response rating, Ragweed: 100
[4]; 62 g ai/ha, scale 0 to 100, 0 no effect, 100 complete control
  Plant response rating, Nightshade: 95
[4]; 125 g ai/ha, scale 0 to 100
  Plant response rating, Nightshade: 100
[4]; 250 g ai/ha, scale 0 to 100
  Plant response rating, Nightshade: 100
[4]; 500 g ai/ha, scale 0 to 100
  Plant response rating, Nightshade: 100
[5]; Postemergence, 62 g ai/ha
  Foxtail, Giant plant response rating: 45
[5]; Postemergence, 125 g ai/ha
  Foxtail, Giant plant response rating: 60
[5]; [12]
  Plant response rating, Foxtail, Giant: 65
[5]; [13]
  Plant response rating, Foxtail, Giant: 70
[5]; [14]
  Plant response rating, Foxtail, Giant: 0
[5]; [15]
  Plant response rating, Foxtail, Giant: 0
[5]; [16]
  Plant response rating, Foxtail, Giant: 65
[5]; [17]
  Plant response rating, Foxtail, Giant: 80
[6]; Postemergence, 62 g ai/ha
  Goosegrass plant response rating: 0
[6]; Postemergence, 125 g ai/ha
  Goosegrass plant response rating: 0
[6]; [12]
  Plant response rating, Goosegrass: 40
[6]; [13]
  Plant response rating, Goosegrass: 55
[6]; [14]
  Plant response rating, Goosegrass: 0
[6]; [15]
  Plant response rating, Goosegrass: 0
[6]; [16]
  Plant response rating, Goosegrass: 0
[6]; [17]
  Plant response rating, Goosegrass: 0
[7]; Postemergence, 62 g ai/ha
  Lambsquarters plant response rating: 100
[7]; Postemergence, 125 g ai/ha
  Lambsquarters plant response rating: 100
[7]; [12]
  Plant response rating, Lambsquarters: 100
[7]; [13]
  Plant response rating, Lambsquarters: 100
[7]; [14]
  Plant response rating, Lambsquarters: 95
[7]; [15]
  Plant response rating, Lambsquarters: 100
[7]; [16]
  Plant response rating, Lambsquarters: 100
[7]; [17]
  Plant response rating, Lambsquarters: 100
[8]; Postemergence, 62 g ai/ha
  Morningglory plant response rating: 90
[8]; Postemergence, 125 g ai/ha
  Morningglory plant response rating: 95
[8]; [12]
  Plant response rating, Morningglory: 100
[8]; [13]
  Plant response rating, Morningglory: 100
[8]; [14]
  Plant response rating, Morningglory: 95
[8]; [15]
  Plant response rating, Morningglory: 100
[8]; [16]
  Plant response rating, Morningglory: 100
[8]; [17]
  Plant response rating, Morningglory: 100
Soybean (Glycine max); Postemergence, 62 g ai/ha
  Soybean plant response rating: 95
Soybean (Glycine max); Postemergence, 125 g ai/ha
  Soybean plant response rating: 95
Soybean (Glycine max); [12]
  Plant response rating, Soybean: 95
Soybean (Glycine max); [13]
  Plant response rating, Soybean: 100
Soybean (Glycine max); [14]
  Plant response rating, Soybean: 75
Soybean (Glycine max); [15]
  Plant response rating, Soybean: 90
Soybean (Glycine max); [16]
  Plant response rating, Soybean: 95
Soybean (Glycine max); [17]
  Plant response rating, Soybean: 100
[9]; Postemergence, 62 g ai/ha
  Velvetleaf plant response rating: 65
[9]; Postemergence, 125 g ai/ha
  Velvetleaf plant response rating: 70
[9]; [12]
  Plant response rating, Velvetleaf: 85
[9]; [13]
  Plant response rating, Velvetleaf: 90
[9]; [14]
  Plant response rating, Velvetleaf: 80
[9]; [15]
  Plant response rating, Velvetleaf: 95
[9]; [16]
  Plant response rating, Velvetleaf: 100
[9]; [17]
  Plant response rating, Velvetleaf: 100
[10]; Postemergence, 62 g ai/ha
  Cupgrass, Woolly plant response rating: 0
[10]; Postemergence, 125 g ai/ha
  Cupgrass, Woolly plant response rating: 50
[10]; [12]
  Plant response rating, Cupgrass, Woolly: 65
[10]; [13]
  Plant response rating, Cupgrass, Woolly: 75
[10]; [14]
  Plant response rating, Cupgrass, Woolly: 0
[10]; [15]
  Plant response rating, Cupgrass, Woolly: 20
[10]; [16]
  Plant response rating, Cupgrass, Woolly: 85
[10]; [17]
  Plant response rating, Cupgrass, Woolly: 95
[11]; Postemergence, 62 g ai/ha
  Nutsedge, Yellow plant response rating: 0
[11]; Postemergence, 125 g ai/ha
  Nutsedge, Yellow plant response rating: 0
[11]; [12]
  Plant response rating, Nutsedge, Yellow: 0
[11]; [13]
  Plant response rating, Nutsedge, Yellow: 0
[11]; [14]
  Plant response rating, Nutsedge, Yellow: 0
[11]; [15]
  Plant response rating, Nutsedge, Yellow: 0
[11]; [16]
  Plant response rating, Nutsedge, Yellow: 0
[11]; [17]
  Plant response rating, Nutsedge, Yellow: 20
